Values of other authors, collected in patent US11129865B2, “NEUPANEX®: neuroprotective, neuroregenerational, and neurogenesis supporting supplement combination” (priority 2017, dated 2021).

How the values were obtained:
heme oxygenase-1 = conditions: astrocytes
heat shock protein 60 = conditions: astrocytes
[1] = supplementary dietary cholesterol
[2] = rodents, increased dietary cholesterol
hippocampal cell culture = conditions: pretreatment, low to moderate concentration (10 nm-100 nm) in culture medium; voltage clamp and toxic NMDA insult
[3] = system: IL-6 and IL-1 alpha and TNF-alpha

## CC(=O)O[C@H](CC(=O)[O-])C[N+](C)(C)C [acetyl-L-carnitine]
Heme oxygenase-1
  levels of heme oxygenase-1: increased levels of heme oxygenase-1 were induced in a dose- and time-dependent manner
Heat shock protein 60
  heat shock protein 60 expression: up-regulation of heat shock protein 60

## CC(C)CCC[C@@H](C)[C@H]1CC[C@H]2[C@@H]3CC=C4C[C@@H](O)CC[C@]4(C)[C@H]3CC[C@]12C [cholesterol]
[1]
  autistic behaviors of children with SLOS: reduced or even eliminated
[2]
  brain cholesterol: dramatically increased brain cholesterol

## Vitamin D
Hippocampal cell culture
  neuroprotective effect compared to controls: dramatic neuroprotective effect
IL-10
  Increases IL-10: Vitamin D: Increases IL-10 (43%), Decreases IL-6 & TNF-Alpha,
[3]
  reduction in inflammatory cytokines IL-6, IL-1 alpha and TNF-alpha, concentration dependence: lower concentrations of vitamin D were more effective than the higher concentrations
